Here are results for two compounds from patent US6448265B1, “Pyrazoles and pyrazolopyrimidines having CRF antagonistic activity” (Pfizer, Inc., priority 1992, dated 2002).

In the case of `Cc1nn(-c2c(Cl)cc(Cl)cc2Cl)c(N)c1C(=O)c1ccccc1Cl` [Example 4, 5-Amino-4-(2-chlorobenzoyl)-3-methyl-1-(2,4,6-trichlorophenyl) pyrazole], the melting point (commonly the temperature, or range, at which the solid turns liquid) was determined as 222 °C.
Under `COc1ccccc1C(=O)c1c(SC)nn(-c2c(Cl)cc(Cl)cc2Cl)c1N` [Example 3, 5-Amino-4-(2-methoxybenzoyl)-3-methylthio-1-(2,4,6-trichlorophenyl)pyrazole] stands 200 to 202 °C.
